Experimental data taken from patent US20200069775A1, “BRAIN OSTEOCALCIN RECEPTOR AND COGNITIVE DISORDERS” (The Trustees of Columbia University in the City of New York, priority 2017, published 2020).

How the values were obtained:
[1] = tested on: Bdnf accumulation in the hippocampus; experiment: BDNF accumulation (Western blot) in hippocampus after peripheral osteocalcin; type: in vivo, mouse; conditions: WT mice injected peripherally, 16 hours (FIG. 13h)
Protocol: FIG. 13. Exogenous osteocalcin improves anxiety and cognition in aged WT mice. (Panel a) EPMT performed in aged mice receiving plasma from aged, young WT, or young Ocn−/− mice, and aged WT mice receiving plasma from young Ocn−/− supplemented with 90 ng/g osteocalcin. Number of entries and time spent (s) in the open arms were scored. (Panel b) NOR performed in aged WT mice receiving plasma from WT mice either aged or young, or from young Ocn−/− mice or from young Ocn−/− supplemented with 90 ng/g osteocalcin. Preference index (time spent with novel object/total exploration time) was measured for each group. (Panel c) BDNF accumulation (representative Western blot, left) and quantification of band intensities (right) in hippocampi of aged WT mice receiving plasma from WT, either aged or young, or from young Ocn−/− mice. α-Tubulin is used as a loading control. (Panel d) DLT performed in 12 and 16 month-old WT mice treated with vehicle or osteocalcin. Number of entries in the lit compartment was measured. (Panel e) EPMT performed in 12 and 16 month-old WT mice treated with vehicle or osteocalcin. Time spent in the lit compartment and open arms was measured. (Panel f) MWMT performed over 10 days in 12 and 16 month-old WT mice treated with vehicle or osteocalcin. […] Preference index (time spent with novel object/total exploration time) was measured for each group. […]

[2] = tested on: mouse primary hindbrain neurons (MPHN); experiment: Calcium flux in mouse primary hindbrain neurons; type: cell-based
Protocol: For calcium imaging, primary hindbrain neurons seeded on 12 mm coverslips were allowed the appropriate time to form structural networks. These cultures were washed with HBSS and loaded with 2.5 μM FURA-2, AM calcium indicator for 45 minutes at room temperature, according to the manufacturer's protocol. Cells were then washed to remove excess indicator and incubated for 30 minutes to allow internalized esters to become de-esterified. 30 ng/ml of osteocalcin was prepared with the control buffer of 1× HBBS supplemented with 10 mM HEPES buffer and 2 mM CaCl2. Using a Zeiss microscope with a perfusion system, coverslips were first perfused with control and osteocalcin. After each stimulation, cells were depolarized with 50 mM KCl to determine the percentage of live cells being imaged. All treatments were recorded using two-photon laser scanning microscopy by Prairie Technologies and analyzed by Z axis profile plotting using ImageJ.
To determine if osteocalcin acts directly on neurons to modulate neurotransmitter synthesis, several types of assays were performed. First, brainstem and midbrain explants from WT and Gprc6a^−/− mice were generated. […] Third, to further confirm that osteocalcin signals in neurons of the hindbrain, calcium flux in MPHN treated with undercarboxylated or carboxylated osteocalcin (FIG. 3F) was measured.

WT 2-month old mice = experiment: ICV delivery in WT adult mice, D/LT and EPMT; type: in vivo, mouse; conditions: ICV 3 or 10 ng/hour, one month
Protocol: Each mouse was allowed to explore the apparatus for 5 min. Global activity was assessed by measuring the number of entries […] (David et al, 2009, Neuron 62:479-493). Anxiety was assessed by comparing the time spent in the open arms.
The test was performed in a quiet, darkened room. Mice were individually housed in cages containing a handful of bedding from their home cage and acclimated to the room at least 1 h before the test. Naive mice were placed individually in the testing chamber in the dark compartment. The test was 5 min in duration, and time spent and number of entries in light compartments were recorded a highly trained observer, blind to the genotype of the mice.
To determine if osteocalcin is sufficient to improve cognitive function in adult mice, WT 2-month old mice were implanted with ICV pumps delivering vehicle (PBS), or 3, 10, or 30 ng/hr recombinant uncarboxylated full-length mouse osteocalcin for a period of one month. After one month of infusion, animals were subjected to behavioral testing.

osteocalcin: Recombinant osteocalcin bacterially produced, cleaved from the GST subunit; completely undercarboxylated at all three sites; full-length mouse osteocalcin (YLGASVPSPDPLEPTREQCELNPACDELSDQYGLKTAYKRIYGITI)
Bdnf accumulation in the hippocampi [1]: increased | calcium fluxes [2]: induced changes in calcium fluxes | anxiety-like behavior (D/LT and EPMT) (WT 2-month old mice): decrease in anxiety-like behavior | exploration of the lit compartment and open arms (D/LT, EPM) (WT 2-month old mice): increase in the exploration of the lit compartment and open arms
